US20240269317A1, “TARGETED ENCAPSULATION STRATEGIES FOR TREATMENT MODALITIES” (NUTARIA LTD., priority 2021, published 2024)

What was measured:
[1] = target: T1, PPARγ (Homo sapiens, UniProt P37231); details: classified by ability to inhibit rosiglitazone-induced cellular responses; cited from earlier work
T1 sequence (P37231 1-505): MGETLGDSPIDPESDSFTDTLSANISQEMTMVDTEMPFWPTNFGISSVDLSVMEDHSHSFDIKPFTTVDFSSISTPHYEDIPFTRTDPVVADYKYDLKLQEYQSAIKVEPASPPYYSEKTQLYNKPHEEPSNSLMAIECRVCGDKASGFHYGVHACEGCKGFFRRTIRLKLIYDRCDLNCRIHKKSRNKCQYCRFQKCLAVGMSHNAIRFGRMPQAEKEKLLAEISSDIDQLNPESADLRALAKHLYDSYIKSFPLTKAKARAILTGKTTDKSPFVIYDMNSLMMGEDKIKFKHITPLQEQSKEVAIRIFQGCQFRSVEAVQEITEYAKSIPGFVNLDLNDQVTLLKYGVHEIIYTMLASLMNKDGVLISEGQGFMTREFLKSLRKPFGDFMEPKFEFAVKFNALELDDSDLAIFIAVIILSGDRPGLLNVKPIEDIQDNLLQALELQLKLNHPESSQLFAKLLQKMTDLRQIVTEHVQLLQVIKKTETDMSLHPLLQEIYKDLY

[2] = tested on: nuclear transcription factor κB (NF-κB) activation; details: cited from earlier work; for activation of IRAK-1, IKK-β, NF-κB, and MAP kinases (ERK, JNK, and p-38): LPS-stimulated murine peritoneal macrophages; for NF-κB activation: lipopolysaccharide (LPS)-stimulated murine peritoneal macrophages
[3] = tested on: Human Neuroblastoma cells (SH Sy5Y cells cell line); assay: in-vitro curcumin delivery experiment (curcumin fluorescence); type: cell-based; details: after 3.5 hours of treatment, relative to the 1 hour time point
Text: FIGS. 5a-b depict different time points of the same experiment. […] This effect might be due to intra-cellular metabolism of the curcumin present in the SLN 10+Caffeine 13 sample.

[4] = target: T2, cyclooxygenase-2 (COX-2) (Homo sapiens, UniProt P35354); details: cited from earlier work
T2 sequence (P35354 18-604): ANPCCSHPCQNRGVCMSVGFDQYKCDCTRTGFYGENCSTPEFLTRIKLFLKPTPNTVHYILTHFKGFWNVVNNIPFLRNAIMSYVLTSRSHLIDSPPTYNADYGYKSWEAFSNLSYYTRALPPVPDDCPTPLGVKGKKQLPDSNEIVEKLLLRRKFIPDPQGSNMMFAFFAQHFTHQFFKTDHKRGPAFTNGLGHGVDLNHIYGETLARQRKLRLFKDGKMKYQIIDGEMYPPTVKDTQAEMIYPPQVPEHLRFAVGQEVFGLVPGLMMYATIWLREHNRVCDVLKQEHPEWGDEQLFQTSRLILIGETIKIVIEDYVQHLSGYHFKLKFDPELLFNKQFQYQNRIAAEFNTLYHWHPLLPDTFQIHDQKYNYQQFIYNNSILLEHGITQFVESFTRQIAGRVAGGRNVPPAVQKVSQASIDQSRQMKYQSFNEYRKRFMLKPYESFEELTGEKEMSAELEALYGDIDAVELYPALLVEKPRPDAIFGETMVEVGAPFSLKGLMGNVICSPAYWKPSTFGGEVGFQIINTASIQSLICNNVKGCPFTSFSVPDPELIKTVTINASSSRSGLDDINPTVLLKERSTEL

Compound | PPARγ activity (agonist, antagonist or modulator) [1] | also measured
O=C1C[C@@H](c2ccc(O)cc2)Oc2cc(O)cc(O)c21 [naringenin] | modulators | 
CC(C)=CCC[C@](C)(O[C@@H]1O[C@H](CO)[C@@H](O)[C@H](O)[C@H]1O)[C@H]1CC[C@]2(C)[C@@H]1[C@H](O)C[C@@H]1[C@@]3(C)CC[C@H](O)C(C)(C)[C@@H]3CC[C@]12C [compound K] |  | activation of IRAK-1, IKK-β, NF-κB, and MAP kinases (ERK, JNK, and p-38) [2]: significantly inhibited; NF-κB activation [2]: inhibited
O=C(/C=C/c1ccc(O)c(O)c1)O[C@H](Cc1ccc(O)c(O)c1)C(=O)O [rosmarinic acid] | antagonists | 
O=c1cc(-c2ccc(O)c(O)c2)oc2cc(O)cc(O)c12 [luteolin] | antagonists | 
COc1ccc(-c2cc(=O)c3c(O)cc(O)cc3o2)cc1O [diosmetin] | antagonists | 
O=c1cc(-c2ccc(O)cc2)oc2cc(O)cc(O)c12 [apigenin] | modulators | 
COc1cc(/C=C/C(=O)CC(=O)/C=C/c2ccc(O)c(OC)c2)ccc1O [curcumin] |  | curcumin fluorescence [3]: remained at the same levels
C-phycocyanin |  | IC50 COX-2/IC50 COX-1 ratio [4]: 0.04
CC(C)=CCC[C@](C)(O[C@@H]1O[C@H](CO[C@@H]2O[C@H](CO)[C@@H](O)[C@H](O)[C@H]2O)[C@@H](O)[C@H](O)[C@H]1O)[C@H]1CC[C@]2(C)[C@@H]1[C@H](O)C[C@@H]1[C@@]3(C)CC[C@H](O[C@@H]4O[C@H](CO)[C@@H](O)[C@H](O)[C@H]4O[C@@H]4O[C@H](CO)[C@@H](O)[C@H](O)[C@H]4O)C(C)(C)[C@@H]3CC[C@]12C [ginsenoside Rb1] |  | activation of IRAK-1, IKK-β, NF-κB, and MAP kinases (ERK, JNK, and p-38) [2]: significantly inhibited; NF-κB activation [2]: inhibited
COc1ccc(-c2coc3cc(O)cc(O)c3c2=O)cc1 [biochanin A] | agonist | 
O=c1c(O)c(-c2ccc(O)c(O)c2)oc2cc(O)cc(O)c12 [quercetin] | antagonists | 
